Test results as given in patent publication US20230373989A1, “N-PHENYLAMINOCARBONYL PYRIDINO-, PYRIMIDINO AND BENZO-TROPANES AS MODULATORS OF GPR65” (PATHIOS THERAPEUTICS LIMITED, priority 2020, published 2023).

Biological target: T1, human recombinant GPR65 (Homo sapiens, UniProt Q8IYL9)
T1 construct: host or cells: 1321N1 human astrocytoma cells (1321N1-hrGPR65)
Test: Human GPR65 cAMP HTRF antagonist assay
Type: cell-based
Conditions: not given
From the text: In one preferred embodiment, the compound prevents the increase in cytoplasmic cAMP levels expected following GPR65 activation at acidic pH. This prevention of cAMP accumulation in turn prevents downstream signalling through ICER, as described above. The “Human GPR65 cyclic adenosine monophosphate (cAMP) Homogeneous Time Resolved Fluorescence (HTRF) antagonist assay”, or simply “cAMP assay”, as described in the accompanying examples, can be used to measure the potency of GPR65 modulators, which is expressed as the concentration of compound required to reduce the increase in cAMP concentration upon GPR65 activation by 50% (i.e. an IC50).
Human GPR65 Cyclic Adenosine Monophosphate (cAMP) Homogeneous Time Resolved Fluorescence (HTRF) Antagonist Assay Procedure
IC50 data was obtained by the following procedure:
1321N1 human astrocytoma cells stably expressing human recombinant GPR65 (1321N1-hrGPR65 cells, EuroscreenFast) were cultured according to the vendor's instructions.
Compounds were tested for their ability to antagonise GPR65, through measuring the concentration of cytoplasmic cAMP following treatment of the cells at a pH of 7.2 to activate GPR65 signalling and addition of the compound to be tested. The extent to which the expected rise in cAMP concentration upon GPR65 activation was suppressed by the added compound is indicative of its potency. The assay was carried out according to EuroscreenFast assay methodology as follows.
On the day of the assay, test compounds were added to 384-well, low volume, white microtiter plates by acoustic dispensing. KRH buffer (5 mM KCl, 1.25 mM MgSO4, 124 mM NaCl, 25 mM HEPES, 13.3 mM Glucose, 1.25 mM KH2PO4 and 1.45 mM CaCl2) was adjusted to pH 6.5, pH 7.6 and pH 8.4 by adding NaOH. 1321N1-hGPR65 cells were rapidly thawed and diluted in KRH, pH 7.6 prior to centrifugation at 300×g for 5 min and resuspension in assay buffer (KRH, pH 7.6, supplemented with 1 mM 3-isobutyl-1-methylxanthine (IBMX) and 200 μM ethylenediaminetetraacetic acid (EDTA)). Cells were added to assay plates at a density of 2,000 cells per well in a volume of 5 μl. Assay plates were briefly centrifuged at 100×g and then incubated at room temperature for 30 min. Cells were stimulated by the addition of 5 μL KRH, pH 6.5, to achieve an assay pH of 7.2, while control wells received 5 μl KRH, pH 8.4 to achieve an assay pH of 7.9. Assay plates were briefly centrifuged at 100×g and then incubated at room temperature for 30 min.
Accumulation of cAMP was detected by cAMP HTRF kit (Cisbio). d2-labeled cAMP and cryptate-labeled anti-cAMP antibody in Lysis and Detection Buffer (Cisbio) were added to assay plates, and the plates were incubated at room temperature for 1 h. HTRF measurements were performed using a Pherastar FSX instrument. Acceptor and donor emission signals were measured at 665 nm and 620 nm, respectively, and HTRF ratios were calculated as signal665 nm/signal620 nm×104. Data were normalised to high and low control values and fitted with 4-parameter logistic regression to determine hGPR65 IC50 values for the test compounds, which are shown in Table 1.

T1 sequence (Q8IYL9 whole entry): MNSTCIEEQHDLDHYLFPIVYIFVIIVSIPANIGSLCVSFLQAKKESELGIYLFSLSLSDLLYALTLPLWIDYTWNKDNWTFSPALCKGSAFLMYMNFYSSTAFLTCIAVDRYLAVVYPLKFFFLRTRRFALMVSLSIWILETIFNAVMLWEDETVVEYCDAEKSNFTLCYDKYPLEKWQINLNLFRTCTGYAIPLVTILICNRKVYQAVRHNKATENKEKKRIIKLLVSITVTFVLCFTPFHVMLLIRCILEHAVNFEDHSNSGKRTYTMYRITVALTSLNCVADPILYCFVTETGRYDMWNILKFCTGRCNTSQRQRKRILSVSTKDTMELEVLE

Q: `O=C(Nc1ccc(Cl)c(Cl)c1)N1C2CCC1c1cncnc1C2` (racemic) [Compound 48, (±)-N-(3,4-dichlorophenyl)-6,7,8,9-tetrahydro-5H-5,8-epiminocyclohepta[d]pyrimidine-10-carboxamide] was tested. Which IC50 did it give?
A: < 500 nM

Q: Which IC50 does the source give for `O=C(Nc1cc(Cl)c(Cl)cc1F)N1[C@H]2CC[C@@H]1c1ccnc(F)c1C2` [Compound 79, (5R,8S)-N-(4,5-Dichlroo-2-fluorophenyl)-1-fluoro-6,7,8,9-tetrahydro-5H-5,8-epiminocyclohepta[c]pyridine-10-carboxamide] here?
A: < 500 nM

Q: With `O=C(Nc1ccc(Cl)c(Cl)c1)N1C2CCC1c1ccc(Cl)cc1C2` (racemic) [Compound 60, (±)-2-Chloro-N-(3,4-dichlorophenyl)-6,7,8,9-tetrahydro-5H-5,8-epiminobenzo[7]annulene-10-carboxamide] as the molecule, how does the IC50 read?
A: < 500 nM

Q: With `O=C(Nc1cccc(OC(F)(F)F)c1)N1C2CCC1c1ccnc(F)c1C2` (racemic) [Compound 171, (±)-1-Fluoro-N-(3-(trifluoromethoxy)phenyl)-6,7,8,9-tetrahydro-5H-5,8-epiminocyclohepta[c]pyridine-10-carboxamide] as the molecule, how does the IC50 read?
A: < 500 nM

Q: For `O=C(Nc1ccc(OC(F)F)c(Cl)c1)N1[C@H]2CC[C@@H]1c1ccnc(F)c1C2` [Compound 133, (5R,8S)—N-(3-Chloro-4-(difluoromethoxy)phenyl)-1-fluoro-6,7,8,9-tetrahydro-5H-5,8-epiminocyclohepta[c]pyridine-10-carboxamide], which IC50 is on record?
A: < 500 nM

Q: How did the IC50 turn out when `O=C(Nc1ccc(C(F)(F)F)c(Cl)c1)N1[C@H]2CC[C@@H]1c1cncnc1C2` [Compound 38, (5R,8S)-N-(3-Chloro-4-(trifluoromethyl)phenyl)-6,7,8,9-tetrahydro-5H-5,8-epiminocyclohepta[d]pyrimidine-10-carboxamide] was run?
A: < 500 nM

Q: Which IC50 does the source give for `O=C(Nc1ccc(C(F)(F)F)c(Cl)c1)N1C2CCC1c1cncnc1C2` (racemic) [Compound 2, (±)-N-(3-Chloro-4-(trifluoromethyl)phenyl)-6,7,8,9-tetrahydro-5H-5,8-epiminocyclohepta[d]pyrimidine-10-carboxamide] here?
A: < 500 nM

Q: Which IC50 does the source give for `N#Cc1cc(NC(=O)N2[C@H]3CC[C@@H]2c2ccnc(F)c2C3)ccc1C(F)(F)F` [Compound 151, (5R,8S)-N-(3-cyano-4-(trifluoromethyl)phenyl)-1-fluoro-6,7,8,9-tetrahydro-5H-5,8-epiminocyclohepta[c]pyridine-10-carboxamide] here?
A: < 500 nM

Same assay, conditions: 1321N1-hrGPR65 cells, assay pH 7.2, cAMP HTRF; read-out: hGPR65 IC50 (activity class)

Q: For `COC(=O)c1cc(NC(=O)N2[C@H]3CC[C@@H]2c2c[nH]c(=O)cc2C3)c(F)cc1Cl` [Compound 132, Methyl 2-chloro-4-fluoro-5-((6S,9R)-3-oxo-3,5,6,7,8,9-hexahydro-2H-6,9-epiminocyclohepta[c]pyridine-10-carboxamido)benzoate], which IC50 is on record?
A: 500 to 5000 nM

Q: With `O=C(Nc1ccc(Cl)c(Cl)c1)N1C2CCC1c1cc(F)ccc1C2` (racemic) [Compound 80, (±)-N-(3,4-Dichlorophenyl)-3-fluoro-6,7,8,9-tetrahydro-5H-5,8-epiminobenzo[7]annulene-10-carboxamide] as the molecule, how does the IC50 read?
A: 500 to 5000 nM

Q: `N#Cc1ccc(NC(=O)N2C3CCC2c2cncnc2C3)cc1Br` (racemic) [Compound 13, (±)-N-(3-Bromo-4-cyanophenyl)-6,7,8,9-tetrahydro-5H-5,8-epiminocyclohepta[d]pyrimidine-10-carboxamide] was tested. Which IC50 did it give?
A: > 5000 nM

Q: How did the IC50 turn out when `CC(C)(C)Nc1nccc2c1CC1CCC2N1C(=O)Nc1ccc(Cl)c(Cl)c1` (racemic) [Compound 65, (±)-1-(tert-Butylamino)-N-(3,4-dichlorophenyl)-6,7,8,9-tetrahydro-5H-5,8-epiminocyclohepta[c]pyridine-10-carboxamide] was run?
A: 500 to 5000 nM

Q: How did the IC50 turn out when `O=C(Nc1ccc(F)c(F)c1F)N1C2CCC1c1ccnc(F)c1C2` (racemic) [Compound 175, (±)-1-Fluoro-N-(2,3,4-trifluorophenyl)-6,7,8,9-tetrahydro-5H-5,8-epiminocyclohepta[c]pyridin-10-carboxamide] was run?
A: 500 to 5000 nM
